Laboratory results reported in patent US20110053897A1 (IRM LLC, priority 2009, published 2011).

The molecules below were run against T1, Syk kinase (Homo sapiens, UniProt P43405) (assay: Syk kinase inhibition, Caliper LabChip off-chip mobility-shift kinase assay). Details: Caliper LabChip assay; read-out: Syk Enzyme IC50.
T1 construct: purchased
Type: biochemical
Summary of the method: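 Purified Syk pre-incubated 15 min with compound in 100 mM HEPES pH 7.5, 1 mM DTT, 10 mM MgCl2 or MnCl2, 0.002% Brij-35, then 1.5 μM fluorescein peptide and ATP at apparent KM added; 1–1.5 h at room temperature, 4% DMSO, EDTA stop. Microfluidic mobility-shift product/substrate conversion gave % inhibition; IC50 from 12-point series (10–0.00003 μM) by 4-parameter fit.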

Row | IC50 [nM] | Structure (SMILES)
1 | 44 | NC(=O)Cn1ccc2cc(-c3cnc(N)nc3)nc(N[C@H]3C[C@@H](CO)C3)c2c1=O [compound 746]
2 | 77.2 | [2H]C([2H])([2H])n1ccc2cc(Nc3cc(C)ccn3)nc(NC(C)(C)CO)c2c1=O [compound 1047]
3 | 9 | [2H]C([2H])([2H])n1ccc2cc(Nc3cnccn3)nc(N[C@H]3CC[C@@H](CO)C3)c2c1=O [compound 986]
4 | 559 | CC(C)(C)Nc1nc(Nc2cc(-c3ccc4cn[nH]c4c3)ccn2)cc2ccn(CCO)c(=O)c12 [compound 850]
5 | 18 | CC(C)(C)Nc1nc(-c2cnc(N)nc2)cc2ccn(CCCCO)c(=O)c12 [compound 920]
6 | 151 | CC(C)(C)Nc1nc(Nc2cc(-c3ccno3)ccn2)cc2ccn(CCO)c(=O)c12 [compound 689]
7 | 59 | NC(=O)Cn1ccc2cc(-c3cnc(N)nc3)nc(NC3CCCC3)c2c1=O [compound 757]
8 | 131 | CCn1ccc2cc(Nc3cc(C)ccn3)nc(Nc3ccc(C(=O)N4CCC(O)CC4)cc3)c2c1=O [compound 835]
9 | 10 | O=c1c2c(N[C@H]3CC[C@@H](O)CC3)nc(Nc3cnccn3)cc2ccn1CCF [compound 999]
10 | 452 | CC(C)(C)Nc1nc(Nc2cc(C3CCCCC3)ncn2)cc2ccn(CCO)c(=O)c12 [compound 625]
11 | 12 | CC(C)(C)Nc1nc(Nc2cc(C3(O)COC3)ccn2)cc2ccn(CCO)c(=O)c12 [Compound No. 609, 8-(tert-butylamino)-2-(2-hydroxyethyl)-6-(4-(3-hydroxyoxetan-3-yl)pyridin-2-ylamino)-2,7-naphthyridin-1(2H)-one]
12 | 53 | CC(N)c1ccnc(Nc2cc3ccn(CCO)c(=O)c3c(NC(C)(C)C)n2)c1 (stereo not shown) [compound 712, 6-(4-(1-aminoethyl)pyridin-2-ylamino)-8-(tert-butylamino)-2-(2-hydroxyethyl)-2,7-naphthyridin-1(2H)-one]
13 | 21 | CC(C)(C)Nc1nc(Nc2cc(Oc3cn[nH]c3)ncn2)cc2ccn(C[C@H](O)CO)c(=O)c12 [compound 890]
14 | 15 | [2H]C(C)(O)c1cc(Nc2cc3ccn(CCO)c(=O)c3c(NC(C)(C)C)n2)ncc1F (stereo not shown) [compound 876]
15 | 17 | CC(C)n1ccc2cc(Nc3cnccn3)nc(N[C@@H](C)CO)c2c1=O [compound 967]
16 | 29 | Cn1ccc2cc(Nc3nccc(O)n3)nc(N[C@H]3CC[C@H](O)CC3)c2c1=O [compound 799]

Row | IC50 [nM] | Structure (SMILES)
17 | 6 | CN1CCC(Oc2cc(Nc3cc4ccn(C[C@H](O)CO)c(=O)c4c(NC(C)(C)C)n3)ncn2)CC1 [compound 649]
18 | 15 | O=c1c2c(N[C@H]3CC[C@H](O)CC3)nc(Nc3cnccn3)cc2ccn1CCO [compound 989]
19 | 14 | CC(C)Nc1nc(Nc2cc(C(C)(C)O)ccn2)cc2ccn(CCO)c(=O)c12 [compound 705]
20 | 92 | CC(C)(O)Cn1ccc2cc(Nc3cc(C(C)(C)O)ncn3)nc(NC3(C)CCC3)c2c1=O [compound 733]
21 | 152 | O=c1[nH]ccc2cc(NC3CCC(O)CC3)nc(Nc3ccc(N4CCOCC4)cc3)c12 (stereo not shown) [compound 657]
22 | 19 | CC(C)(C)Nc1nc(Nc2cnccn2)cc2ccn(CCC#N)c(=O)c12 [compound 1004]
23 | 9 | CC(C)(C)Nc1nc(Nc2cc(-c3ncccn3)ccn2)cc2ccn(CCO)c(=O)c12 [compound 878]
24 | 208 | CC(C)(C)Nc1nc(Nc2ccc(C#N)cn2)cc2ccn(CCO)c(=O)c12 [compound 697]
25 | 175 | NC(=O)Cn1ccc2cc(-c3cnc(N)nc3)nc(NC3CC(F)(F)C3)c2c1=O [compound 759]
26 | 11 | CC(C)(C)Nc1nc(Nc2cc(OCCO)ccn2)cc2ccn(CCO)c(=O)c12 [compound 866]
27 | 26 | CC(C)(C)Nc1nc(Nc2cc(C(=O)NO)ccn2)cc2ccn(CCO)c(=O)c12 [compound 879]
28 | 459 | CC(C)(C)Nc1nc(Nc2cnccn2)cc2ccn(CC(O)C(F)(F)F)c(=O)c12 (stereo not shown) [compound 1011]
29 | 65 | CC(C)(C)Nc1nc(Nc2cc(C(O)C(F)(F)F)ccn2)cc2ccn(CCO)c(=O)c12 (stereo not shown) [Compound No. 602, 8-(tert-butylamino)-2-(2-hydroxyethyl)-6-(4-(2,2,2-trifluoro-1-hydroxyethyl)pyridin-2-ylamino)-2,7-naphthyridin-1(2H)-one]
30 | 518 | CC[C@H](CO)Nc1nc(Nc2cc(C)ccn2)cc2ccn(CC)c(=O)c12 [compound 598]
31 | 153 | CCn1ccc2cc(Nc3cnccn3)nc(NC(C)(CO)CO)c2c1=O [compound 809]

Same assay, conditions: read-out: Syk Enzyme IC50

Row | IC50 [nM] | Structure (SMILES)
32 | 75 | Cc1ccnc(Nc2cc3cc[nH]c(=O)c3c(NC(C)(C)C)n2)c1 [compound 494]
33 | 468 | [2H]C([2H])([2H])n1ccc2cc(Nc3cc(C)c(Cl)cn3)nc(NC3CC3)c2c1=O [compound 548]
34 | 49 | Cc1cc(Nc2nc(Nc3cc(CO)ccn3)cc3cc[nH]c(=O)c23)ccc1C1CCN(C2CC2)CC1 [compound 260]
35 | 24 | Cn1ccc2cc(Nc3cnccn3)nc(N[C@H]3CC[C@@H](O)CC3)c2c1=O [compound 330]
36 | 384 | Nc1ncc(-c2cc3cc[nH]c(=O)c3c(NC[C@@H](O)c3cccc(Cl)c3)n2)cn1 [compound 449]
37 | 120 | Cn1ccc2cc(Nc3cnccn3)nc(NC(C)(C)C)c2c1=O [compound 466]
38 | 301 | N#Cc1ccc(Nc2cc3cc[nH]c(=O)c3c(Nc3ccc(N4CCOCC4)cc3)n2)nc1 [compound 515]
39 | 4870 | O=c1[nH]ccc2cc(Nc3ccc(F)cn3)nc(Nc3ccc(N4CCOCC4)cc3)c12 [compound 576]
40 | 81 | CCN1CCN(CCc2ccc(Nc3nc(Nc4cc(C)ccn4)cc4cc[nH]c(=O)c34)cc2)CC1 [compound 585]
41 | 130 | COc1cncc(-c2cc3cc[nH]c(=O)c3c(Nc3ccc(C4CCN(CC#N)CC4)c(C)c3)n2)n1 [compound 133]
42 | 228 | COc1ccc(Nc2nc(Nc3cc(C)ccn3)cc3ccn(C)c(=O)c23)cc1 [compound 364]
43 | 407 | CO/N=C(\C)c1cc2cc[nH]c(=O)c2c(Nc2ccc(C3CCN(C4CC4)CC3)c(C)c2)n1 [compound 237]
44 | 115 | COCC(C)Nc1nc(-c2cnc(N)nc2)cc2cc[nH]c(=O)c12 (stereo not shown) [compound 180]
45 | 83 | COCCN1CC(c2ccc(Nc3nc(-c4cncc(OC)n4)cc4cc[nH]c(=O)c34)cc2)C1 [compound 150]
46 | 288 | Cc1ccnc(Nc2cc3cc[nH]c(=O)c3c(NCCC3CCCN3C)n2)c1 (stereo not shown) [compound 562]
47 | 49 | CCN1CCN(Cc2n[nH]c3cc(Nc4nc(-c5ccc(C)nc5)cc5cc[nH]c(=O)c45)ccc23)CC1 [compound 203]
48 | 122 | O=c1[nH]ccc2cc(Nc3cc(Cl)ccn3)nc(NC3CC3)c12 [compound 481]
49 | 55 | COc1cncc(-c2cc3cc[nH]c(=O)c3c(Nc3ccc(CCN4CCNC(=O)C4)cc3)n2)n1 [compound 155]
50 | 143 | O=c1[nH]ccc2cc(Nc3ccccn3)nc(Nc3ccc(N4CCOCC4)cc3)c12 [compound 509]
51 | 89 | Cc1ccc(-c2cc3cc[nH]c(=O)c3c(Nc3ccc(C4CCN(C5CC5)CC4)c(C)c3)n2)cn1 [compound 219]
52 | 2130 | CCOCCOc1cccc(Nc2nc(Nc3cnccn3)cc3ccn(C)c(=O)c23)c1 [compound 337]

Row | IC50 [nM] | Structure (SMILES)
53 | 113 | CCN1CCN(CCc2ccc(Nc3nc(Nc4ccc(C(N)=O)cn4)cc4cc[nH]c(=O)c34)cc2)CC1 [compound 579]
54 | 120 | COCCNc1nc(Nc2cc(C)ccn2)cc2cc[nH]c(=O)c12 [compound 527]
55 | 286 | COCCCNc1nc(Nc2ccccn2)cc2cc[nH]c(=O)c12 [compound 190]
56 | 15 | Cc1ccnc(Nc2cc3cc[nH]c(=O)c3c(Nc3ccc(N4CCOCC4)cc3)n2)c1 [compound 480]
57 | 61 | COc1cncc(-c2cc3cc[nH]c(=O)c3c(Nc3ccc(CCN4CCN(C(C)=O)CC4)cc3)n2)n1 [compound 45]
58 | 32 | Cc1ccnc(Nc2cc3cc[nH]c(=O)c3c(Nc3ccc(C4CCN(C5CC5)CC4)c(C)c3)n2)c1 [compound 252]
59 | 21.5 | O=c1c2c(NCC(F)(F)F)nc(Nc3cnccn3)cc2ccn1CCO [compound 456]
60 | 6 | O=c1c2c(N[C@H]3CC[C@@H](O)CC3)nc(Nc3cnccn3)cc2ccn1CCO [compound 376]
61 | 18 | CNC(=O)CCN1CCC(c2ccc(Nc3nc(-c4cncc(OC)n4)cc4cc[nH]c(=O)c34)cc2C)CC1 [compound 161]
62 | 186 | CCOC(=O)c1ccc(Nc2cc3cc[nH]c(=O)c3c(Nc3ccc(N4CCOCC4)cc3)n2)nc1 [compound 578]
63 | 1290 | COCCCc1cc2cc[nH]c(=O)c2c(Nc2ccc(C3CCN(C4CC4)CC3)c(C)c2)n1 [compound 238]
64 | 2080 | Cc1cc(Nc2nc(Nc3ccc(Cl)cn3)cc3cc[nH]c(=O)c23)ccc1C1CCN(C2CC2)CC1 [compound 250]
65 | 346 | CCC(C(=O)OC)N1CCC(c2ccc(Nc3nc(-c4cncc(OC)n4)cc4cc[nH]c(=O)c34)cc2C)CC1 (stereo not shown) [compound 118]
66 | 235 | CS(=O)(=O)c1ccc(Nc2nc(Nc3cnccn3)cc3ccn(CCO)c(=O)c23)cc1 [compound 405]
67 | 214 | Cc1ccnc(Nc2cc3ccn(C)c(=O)c3c(NCC(F)(F)F)n2)c1 [compound 493]
68 | 374 | CCC(C)(C)Nc1nc(Nc2cc(C)ccn2)cc2cc[nH]c(=O)c12 [compound 528]
69 | 382 | Cc1cccnc1Nc1cc2cc[nH]c(=O)c2c(Nc2ccc(N3CCOCC3)cc2)n1 [compound 533]
70 | 201 | CCC(C)Nc1nc(Nc2cc(C)ccn2)cc2cc[nH]c(=O)c12 (stereo not shown) [compound 262]
71 | 86.1 | CCn1ccc2cc(Nc3cc(C)ccn3)nc(N[C@H]3CCC[C@@H]3O)c2c1=O [compound 422]
72 | 1220 | CC(=O)N1CCC(c2ccc(Nc3nc(Nc4cnccn4)cc4ccn(C)c(=O)c34)cc2)CC1 [compound 345]
73 | 33 | CCc1ccnc(Nc2cc3cc[nH]c(=O)c3c(Nc3ccc(C4CCN(C5CC5)CC4)c(C)c3)n2)c1 [compound 253]
